According to patent US20250129135A1, “Multi-Agonist and Use Thereof” (priority 2021, published 2025):

Assays:
[1] = Rat pharmacokinetics (PK) study; assay type: in vivo; conditions: sc, male SD rats, subcutaneous 30 nmol/kg, plasma
Method: 7˜9 weeks old male SD rats (220-250 g, 3 rats/group) were subjected to subcutaneous injection of 30 nmol/kg compound. After administration, blood was collected through the jugular vein at time points 0.25, 2, 4, 8, 12, 16, 24, 48, 96, 120, and 144 hours. The blood was processed to obtain plasma samples and analyzed using LC-MS/MS. The blood concentration time curve was analyzed using Phoenix WinNonlin version 6.3 software (non compartment model), and PK parameters and half-life were calculated.

[2] = test system: human primary liver cells; assay type: cell-based
Summary of the method: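 cAMP readout after 60 min with detection reagent, following 60 min room-temperature compound incubation. Cells were primary human liver cells thawed at 37° C and resuspended in HBSS.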

[3] = test system: RIN-m5F cells; assay type: cell-based, rat
Summary of the method: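 After 60 min room-temperature exposure of HBSS-suspended RIN-m5F cells to compound and another 60 min with detection reagent, cellular cAMP level was determined.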

[4] = test system: 3T3-L1 adipocytes
Summary of the method: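 Compound-induced cAMP was measured in mature 3T3-L1 adipocytes after 60 min room-temperature exposure to a 10-concentration, 3-fold dilution series, followed by 60 min with kit detection reagent and curve fitting. Differentiation used IBMX/dexamethasone/insulin (5 days), insulin with 10 uM rosiglitazone (3 days), then 2–3 days in 10% FBS.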

[5] = test system: C57 BL/6J DIO mice; assay: In vivo pharmacodynamics in high-fat diet induced obesity (DIO) mice; set-up: species or system mouse; conditions: Mean±SEM; for Weight change: Table 6-1; for LDL-C / TC (total cholesterol) / TG (plasma triglycerides): Table 7-1
From the text: High-fat diet induced obesity (DIO) mice have characteristics such as obesity, elevated blood sugar, insulin resistance, and lipid abnormalities, all of which are very significant metabolic syndromes similar to a human body. The effects of the compounds of the present application on body weight, food intake, blood sugar, and lipids in C57 BL/6J DIO mice were studied.
Obesity was induced in mice by feeding with a high-fat diet (60 kcal % of calories from fat). […] After grouping, one animal was raised in each cage for one week, during which each of the animals was injected subcutaneously (S.C.) with a solvent (1×PBS, 5 ml/kg) to pre-adapt the experimental operation process.
After the preparation of animals, vehicle control or compounds were administered to groups of animals by subcutaneous injection, in which the compounds were dissolved in 1×PBS, the dosage was 5 ml/kg, and the administration operation was started at 9:00 am and conducted once every three days (Q3D) for 15 days. Throughout the entire experimental study, animal weight and food intake were measured daily before administration, and compared with initial weight and food intake of the same animal before administration to calculate a percentage change in animal weight (%) and cumulative food intake, so as to evaluate the impact of compounds on changes in body weight and food intake.
At the end point of the experiment (Day 15), the body weight of the mice was measured, and then fasting blood glucose was measured by taking blood from the tail tip of broken tail without anesthesia. After the blood collection, the animals were anesthetized with CO2 and euthanized. Then, blood was taken from the heart and plasma was separated by centrifugation. The plasma was used to measure total cholesterol (TC), low-density lipoprotein cholesterol (LDL-C), triglycerides (TG), and blood insulin content. The liver was separated for homogenization, and then centrifuged to obtain the supernatant for determining triglyceride content in the liver.
All results were expressed in Mean±SEM, and the results were analyzed by one-way ANOVA using GraphPad Prism 5 software, followed by Dunnett's post hoc test compared to the Vehicle control group. The difference at the p<0.05 level was considered statistically significant.

AUC(0-t) [1]: 6.69 µM·h
Cmax [1]: 149 nM
Tmax [1]: 21.3 h
half-life [1]: 1150 min
EC50 [2]: 1.59 nM
EC50 [3]: 0.4 nM
Structure (SMILES): CC[C@H](C)[C@H](NC(=O)[C@H](Cc1ccccc1)NC(=O)[C@H](C)NC(=O)C(C)(C)NC(=O)[C@H](CCC(N)=O)NC(=O)[C@H](C)NC(=O)[C@H](CCCCNC(=O)COCCOCCNC(=O)COCCOCCNC(=O)CC[C@H](NC(=O)CCCCCCCCCCCCCCCCCCC(=O)O)C(=O)O)NC(=O)[C@H](CCCCN)NC(=O)[C@H](CC(=O)O)NC(=O)[C@H](CC(C)C)NC(=O)[C@](C)(CC(C)C)NC(=O)[C@@H](NC(=O)[C@H](CO)NC(=O)[C@H](Cc1ccc(O)cc1)NC(=O)[C@H](CC(=O)O)NC(=O)[C@H](CO)NC(=O)[C@@H](NC(=O)[C@](C)(Cc1ccccc1)NC(=O)[C@@H](NC(=O)CNC(=O)[C@H](CCC(N)=O)NC(=O)C(C)(C)NC(=O)[C@@H](N)Cc1ccc(O)cc1)[C@@H](C)O)[C@@H](C)O)[C@@H](C)CC)C(=O)N[C@@H](CCC(=O)O)C(=O)N[C@@H](Cc1ccc(O)cc1)C(=O)N[C@@H](CC(C)C)C(=O)N[C@@H](CC(C)C)C(=O)N[C@@H](CCC(=O)O)C(=O)N[C@@H](CO)C(=O)N[C@@H](Cc1c[nH]cn1)C(=O)N1CCC[C@H]1C(=O)N[C@@H](CO)C(=O)N[C@@H](CO)C(=O)NCC(=O)N[C@@H](C)C(=O)N1CCC[C@H]1C(=O)N1CCC[C@H]1C(=O)NC1(C(=O)N[C@@H](CO)C(N)=O)CC1 [Compound 3]
EC50 [4]: 1.87 nM
Weight change ([5]; 3 nmol/kg s.c. Q3D for 15 days): −21.2 ± 0.75%
Weight change ([5]; 10 nmol/kg s.c. Q3D for 15 days): −32.4 ± 2.94%
Weight change ([5]; 30 nmol/kg s.c. Q3D for 15 days): −51.6 ± 1.21%
LDL-C ([5]; 3 nmol/kg, Day 15): 0.52 ± 0.033 mM
TC (total cholesterol) ([5]; 3 nmol/kg, Day 15): 3.42 ± 0.214 mM
TG (plasma triglycerides) ([5]; 3 nmol/kg, Day 15): 0.87 ± 0.066 mM
LDL-C ([5]; 30 nmol/kg, Day 15): 0.37 ± 0.035 mM
TC (total cholesterol) ([5]; 30 nmol/kg, Day 15): 2.15 ± 0.079 mM
TG (plasma triglycerides) ([5]; 30 nmol/kg, Day 15): 0.55 ± 0.022 mM
Blood sugar (fasting blood glucose) ([5]; Table 8-1, 3 nmol/kg, Day 15): 107.5 ± 5.17 mg/dL
Insulin (blood) ([5]; Table 8-1, 3 nmol/kg, Day 15): 25.4 ± 16.90 mIU/L
Liver TG ([5]; Table 9-1, 3 nmol/kg, Day 15): 32.2 ± 2.99 mg
